Series [1] has as its system T1, HDAC.
T1 construct: rows headed: HDAC IC50
The series can be described thus: HDAC fluorimetric enzyme assay (HeLa nuclear extract). Format: biochemical. The settings on record: FIG. 1.
Method: HDAC inhibitors were screened using an HDAC fluorimetric assay kit (AK-500, Biomol, Plymouth Meeting, Pa.). […] Fluorescence was measured on a WALLAC Victor 2 plate reader and reported as relative fluorescence units (RFU). Data were plotted using GraphPad Prism (v4.0a) and IC50's calculated using a sigmoidal dose response curve fitting algorithm. Each assay was setup as follows: Defrosted all kit components and kept on ice until use. […] Prepared dilutions of Trichostatin A (TSA, positive control) and tested compounds in assay buffer (5× of final concentration). Diluted Fluor de Lys™ Substrate in assay buffer to 100 uM (50 fold=2× final). Diluted Fluor de Lys™ developer concentrate 20-fold (e.g. 50 μl plus 950 μl Assay Buffer) in cold assay buffer. Second, diluted the 0.2 mM Trichostatin A 100-fold in the 1× Developer (e.g. 10 μl in 1 ml; final Trichostatin A concentration in the 1× Developer=2 μM; final concentration after addition to HDAC/Substrate reaction=1 μM). Added Assay buffer, diluted trichostatin A or test inhibitor to appropriate wells of the microtiter plate. Added diluted HeLa extract or other HDAC sample to all wells except for negative controls.

In series [2] the target is T2, human EGFR (Homo sapiens, UniProt P00533).
T2 construct: human EGFR (His672-Ala1210); purchased Cell Signaling Technologies; host or cells: baculovirus expression system
The series can be described thus: HTScan EGF Receptor Kinase assay. The format is biochemical. The protocol: The ability of compounds to inhibit receptor kinase (EGFR) activity was assayed using HTScan™ EGF Receptor Kinase Assay Kits (Cell Signaling Technologies, Danvers, Mass.). […] The protein was purified by one-step affinity chromatography using glutathione-agarose.
Immediately transfer enzyme from −80° C. to ice. Allowed enzyme to thaw on ice. […] Returned immediately to ice. […] Incubated reaction plate at room temperature for 30 minutes. […] Added 100 μl/well primary antibody. Incubated at room temperature for 60 minutes. […] Added 100 μl/well diluted antibody. Incubated at room temperature for 30 minutes. […] Incubated at room temperature for 5 minutes.

For series [3], the system named is Lung_H1975. The series can be described thus: Cell proliferation assay (ATPlite). The format is cell-based. The following applies: 72 hours, 0.5% fetal bovine serum. The protocol:
(§1) A representative number of compounds were assayed against several different cell lines using the cell proliferation assay:
(§2) Cell Proliferation Assay:
(§3) Cancer cell lines were plated at 5,000 to 10,000 per well in 96-well flatted bottomed plates with various concentration of compounds. The cells were incubated with compounds for 72 hours in the presence of 0.5% of fetal bovine serum. Growth inhibition was accessed by adenosine triphosphate (ATP) content assay using Perkin Elmer ATPlite kit. ATPlite is an ATP monitoring system based on firefly luciferase. Briefly, 25 μl of mammalian cell lysis solution was added to 50 μl of phenol red-free culture medium per well to lyse the cells and stabilize the ATP. 25 μl of substrate solution was then added to the well and subsequently the luminescence was measured.
(In general: ATP-based viability assays read luminescence as a measure of living cells.)

Series [4] deals with Lung_H2122. The series can be described thus: Cell proliferation assay (ATPlite). The format is cell-based. The settings on record: 72 hours, 0.5% fetal bovine serum. As to the method: as §1, §2, §3
The subject of series [5] is Lung_H358. The series can be described thus: Cell proliferation assay (ATPlite). The following applies: 72 hours, 0.5% fetal bovine serum. The format is cell-based. As to the method:
as §1, §2, §3

Series [6] relates to Lung_H460. The experiment in a line: Cell proliferation assay (ATPlite). The format is cell-based. The following applies: 72 hours, 0.5% fetal bovine serum. As to the method: as §1, §2, §3
For series [7], the system named is Pancreas_BxPC3. The series can be described thus: Cell proliferation assay (ATPlite). Format: cell-based. The settings on record: 72 hours, 0.5% fetal bovine serum. The protocol: as §1, §2, §3
Series [8] relates to Pancreas_Capan1. The series can be described thus: Cell proliferation assay (ATPlite). The format is cell-based. The settings on record: 72 hours, 0.5% fetal bovine serum. The protocol:
as §1, §2, §3

The subject of series [9] is Prostate_PC3. The series can be described thus: Cell proliferation assay (ATPlite). Format: cell-based. The following applies: 72 hours, 0.5% fetal bovine serum. The protocol:
as §1, §2, §3

Series [10] deals with Colon_HCT116. The series can be described thus: Cell proliferation assay (ATPlite). The following applies: 72 hours, 0.5% fetal bovine serum. The format is cell-based. The protocol:
as §1, §2, §3

In series [11] the test system is Pancreas_CFPAC. The series can be described thus: Cell proliferation assay (ATPlite). The format is cell-based. The following applies: 72 hours, 0.5% fetal bovine serum. As to the method: as §1, §2, §3
Series [12] deals with Pancreas_HPAC. The series can be described thus: Cell proliferation assay (ATPlite). The format is cell-based. The settings on record: 72 hours, 0.5% fetal bovine serum. The protocol:
as §1, §2, §3

The subject of series [13] is Pancreas_MiaPaCa2. The experiment in a line: Cell proliferation assay (ATPlite). The settings on record: 72 hours, 0.5% fetal bovine serum. The format is cell-based. As to the method:
as §1, §2, §3

Series [14] concerns Pancreas_PANC1. The series can be described thus: Cell proliferation assay (ATPlite). The format is cell-based. The settings on record: 72 hours, 0.5% fetal bovine serum. The protocol: as §1, §2, §3
Series [15] relates to Lung_H1703. The series can be described thus: Cell proliferation assay (ATPlite). The format is cell-based. The following applies: 72 hours, 0.5% fetal bovine serum. As to the method: as §1, §2, §3
In series [16] the test system is Lung_HCC827. The experiment in a line: Cell proliferation assay (ATPlite). The following applies: 72 hours, 0.5% fetal bovine serum. Format: cell-based.
Method: Cancer cell lines were plated at 5,000 to 10,000 per well in 96-well flatted bottomed plates with various concentration of compounds. […] Growth inhibition was accessed by adenosine triphosphate (ATP) content assay using Perkin Elmer ATPlite kit. […] Briefly, 25 μl of mammalian cell lysis solution was added to 50 μl of phenol red-free culture medium per well to lyse the cells and stabilize the ATP. 25 μl of substrate solution was then added to the well and subsequently the luminescence was measured.
The subject of series [17] is A549 NSCLC. The experiment in a line: A549 NSCLC Xenograft model. The following applies: compared with vehicle or control. The format is in vivo, mice. The protocol: A representative protocol for the in vivo experiment is as followed:
1-10×10^6 human cancer cells were implanted subcutaneously to the athymic (nu/nu) mice. When the tumors reached about 100 mm^3 in volume, the mice were treated with the compound by tail vein infusion. Routinely 5 groups (8-12 mice per group) are needed for a typical efficacy study, including one negative control, one positive control, and three testing groups for 3 dose levels of the same compound. Usually a 7-7-5 (on-off-on) regimen was used for one typical study. The tumor size was measured with an electronic caliper and body weight measured with a scale twice weekly. The tumors were removed from euthanized mice at the end of the study. One half of each tumor was frozen in dry ice and stored at −80° C. for PK or Western blot analysis. The other half was fixed with formalin. The fixed tissues were processed, embedded in paraffin and sectioned for immunohistochemistry staining. Protocol for Radioisotope assay for HER2

The nature of series [18]: Dilution study with D5W. Format: physicochemical. The following applies: 30% CAPTISOL solution.

T2 sequence (P00533 672-1210): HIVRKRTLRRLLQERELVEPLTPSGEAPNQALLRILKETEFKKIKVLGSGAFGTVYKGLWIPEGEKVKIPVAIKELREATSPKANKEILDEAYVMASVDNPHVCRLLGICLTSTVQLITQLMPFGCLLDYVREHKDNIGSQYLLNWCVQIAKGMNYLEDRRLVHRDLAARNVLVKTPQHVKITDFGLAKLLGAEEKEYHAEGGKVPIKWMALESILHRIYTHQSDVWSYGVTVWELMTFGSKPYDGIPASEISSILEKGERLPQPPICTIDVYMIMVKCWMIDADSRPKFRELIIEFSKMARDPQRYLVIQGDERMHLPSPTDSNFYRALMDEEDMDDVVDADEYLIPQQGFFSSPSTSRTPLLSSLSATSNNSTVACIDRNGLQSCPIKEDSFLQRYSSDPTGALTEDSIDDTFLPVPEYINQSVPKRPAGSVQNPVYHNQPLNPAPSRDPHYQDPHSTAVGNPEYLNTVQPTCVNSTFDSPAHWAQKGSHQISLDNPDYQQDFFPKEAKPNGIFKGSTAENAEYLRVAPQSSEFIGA

What is called IC50 is the concentration that gives 50% inhibition. A higher IC50 goes with lower potency. Turning to `COc1cc2ncnc(Nc3ccc(F)c(Cl)c3)c2cc1OCCCCCCC(=O)NO` [Compound 6, 7-(4-(3-Chloro-4-fluorophenylamino)-7-methoxyquinazolin-6-yloxy)-N-hydroxyheptanamide], the “activity in HDAC enzyme assay compared with erlotinib and SAHA” value in series [1] is “more active than erlotinib and SAHA”. In [2] (FIG. 1), the “activity in EFGR enzyme assay compared with erlotinib and SAHA” value was “more active than erlotinib and SAHA”. In addition, the IC50 in [3] was 100 to 1000 nM; in series [4], 100 to 1000 nM; in [5], 100 to 1000 nM; in series [6], 100 to 1000 nM; in series [7], 100 to 1000 nM; in [8], 1000 to 10000 nM. In [9], this compound displayed an IC50 of 100 to 1000 nM.

Take `O=C(CCCCCCOc1ccc2ncnc(Nc3ccc(F)c(Cl)c3)c2c1)NO` [Compound 18, 7-(4-(3-chloro-4-fluorophenylamino)quinazolin-6-yloxy)-N-hydroxyheptanamide]: the IC50 in [10] was in the range of 100 to 1000 nM; in [11] it was 100 to 1000 nM; in [12], 1000 to 10000 nM; in series [13], 100 to 1000 nM; in [14], 100 to 1000 nM.

For `COc1cc2ncnc(Nc3ccc(F)c(Cl)c3)c2cc1NC(=O)CCCCCCC(=O)NO` [Compound 40, N^1-(4-(3-chloro-4-fluorophenylamino)-7-methoxyquinazolin-6-yl)-N^8-hydroxyoctanediamide], the IC50 in series [11], in series [12], in series [13] and in series [14] was 1000 to 10000 nM each time.

In the case of `C#Cc1cccc(Nc2ncnc3cc(OC)c(NC(=O)CCCCCCC(=O)NO)cc23)c1` [Compound 44, N^1-(4-(3-ethynylphenylamino)-7-methoxyquinazolin-6-yl)-N^8-hydroxyoctanediamide], the 50% inhibitory concentration (IC50) in series [15], in series [3], in series [4], in series [5], in series [6] and in [7] was 1000 to 10000 nM in each case. For the same compound, the IC50 lay within 1000 to 10000 nM in [8] and 100 to 1000 nM in [16].

In the case of `COc1cc2ncnc(Nc3ccc(F)c(Cl)c3)c2cc1OCCOc1ccc(/C=C/C(=O)NO)cc1` [Compound 66, (E)-3-(4-(2-(4-(3-chloro-4-fluorophenylamino)-7-methoxyquinazolin-6-yloxy)ethoxy)phenyl)-N-hydroxyacrylamide], the concentration for half-maximal inhibition (IC50) in series [7], in series [12], in series [13] and in [14] was 1000 to 10000 nM throughout.

As for `COCCOc1cc2ncnc(Nc3ccc(F)c(Cl)c3)c2cc1NC(=O)CCCCCCC(=O)NO` [Compound 70, N^1-(4-(3-chloro-4-fluorophenylamino)-7-(2-methoxyethoxy)quinazolin-6-yl)-N^8-hydroxyoctanediamide], the half-inhibitory concentration (IC50) in series [2] was < 100 nM; in [11], 1000 to 10000 nM; in [12] it was > 10000 nM; in series [13] it was 1000 to 10000 nM; in series [14], 1000 to 10000 nM.

As for `COc1cc2ncnc(N[C@H](C)c3ccccc3)c2cc1OCCCCCC(=O)NO` [Compound 77, (R)—N-hydroxy-6-(7-methoxy-4-(1-phenylethylamino)quinazolin-6-yloxy)-hexanamide], the 50% inhibitory concentration (IC50) is 1000 to 10000 nM in series [11], > 10000 nM in series [12], 100 to 1000 nM in series [13] and > 10000 nM in series [14].

Take `COc1cc2ncnc(N[C@H](C)c3ccccc3)c2cc1OCCCCCCC(=O)NO` [Compound 79, (R)—N-hydroxy-7-(7-methoxy-4-(1-phenylethylamino)quinazolin-6-yloxy)heptanamide]: the IC50 is 1000 to 10000 nM in series [11], > 10000 nM in series [12], 1000 to 10000 nM in series [13] and 1000 to 10000 nM in series [14].

Consider `COc1cc2ncnc(NCc3ccccc3)c2cc1OCCCCCCC(=O)NO` [Compound 85, 7-(4-(Benzylamino)-7-methoxyquinazolin-6-yloxy)-N-hydroxyheptanamide], for which the IC50 in series [10] lay in the range of 100 to 1000 nM; in series [7], 100 to 1000 nM; in [12], 1000 to 10000 nM; in series [13] it was 1000 to 10000 nM; in [14], 1000 to 10000 nM.

`COc1cc2ncnc(Nc3ccc(F)c(Cl)c3)c2cc1OCCOc1ccc(C(=O)NO)cc1` [Compound 92, 4-(2-(4-(3-chloro-4-fluorophenylamino)-7-methoxyquinazolin-6-yloxy)ethoxy)-N-hydroxybenzamide]: the half-inhibitory concentration (IC50) in series [2] is < 100 nM.

Turning to `C#Cc1cccc(Nc2ncnc3cc(OCCOC)c(OCCOC)cc23)c1` [Erlotinib, reference compound], in [17], the “effect on tumor size / tumor growth” value is given as “did not significantly affect tumor size”.

Turning to Tartaric Acid, in series [18], the “Dilution with D5W” value is recorded as >50x.

(Values after US8119616B2, “Formulation of quinazoline based EGFR inhibitors containing a zinc binding moiety” (Curis, Inc., priority 2007, dated 2012).)
